Where a SMILES comes first, the peptide text is derived from it. Bridges are numbered along the chain shown (N, C = ends). [ ]: non-standard residue; d: D form. The star is where a group is joined. ξ: configuration not given here. Phe(3-CF3) = N[C@@H](Cc1cccc(C(F)(F)F)c1)C(=O)O; Phe(4-COOH) = N[C@@H](Cc1ccc(C(=O)O)cc1)C(=O)O; Bip = N[C@@H](Cc1ccc(-c2ccccc2)cc1)C(=O)O; NH(CH2)14COOH = O=C(O)CCCCCCCCCCCCCCN*; Phe(3-Me) = Cc1cccc(C[C@H](N)C(=O)O)c1; NH(CH2)12COOH = O=C(O)CCCCCCCCCCCCN*; Val(3-OH) = CC(C)(O)[C@H](N)C(=O)O; Hexyloxycarbonyl = CCCCCCOC(=O)*; 3Pal = N[C@@H](Cc1cccnc1)C(=O)O; 4Pal = N[C@@H](Cc1ccncc1)C(=O)O; NMeE = CN[C@@H](CCC(=O)O)C(=O)O; Cha = N[C@@H](CC1CCCCC1)C(=O)O; Cit = NC(=O)NCCC[C@H](N)C(=O)O; Ile(3ξ) = CCC(C)[C@H](N)C(=O)O; 12Ado = NCCCCCCCCCCCC(=O)O; dDab = NCC[C@@H](N)C(=O)O; Carboxymethyl = O=C(O)C*; NMeA = CN[C@@H](C)C(=O)O; Orn = NCCC[C@H](N)C(=O)O; Aun = NCCCCCCCCCCC(=O)O; Dab = NCC[C@H](N)C(=O)O; Dap = NC[C@H](N)C(=O)O; AEEA = NCCOCCOCC(=O)O

For twelve compounds, IC50 results are on record in patent US20260070945A1, “MACROCYCLIC IMMUNOMODULATORS” (Bristol-Myers Squibb Company, priority 2022, published 2026).

T1 sequence (Q15116 25-288): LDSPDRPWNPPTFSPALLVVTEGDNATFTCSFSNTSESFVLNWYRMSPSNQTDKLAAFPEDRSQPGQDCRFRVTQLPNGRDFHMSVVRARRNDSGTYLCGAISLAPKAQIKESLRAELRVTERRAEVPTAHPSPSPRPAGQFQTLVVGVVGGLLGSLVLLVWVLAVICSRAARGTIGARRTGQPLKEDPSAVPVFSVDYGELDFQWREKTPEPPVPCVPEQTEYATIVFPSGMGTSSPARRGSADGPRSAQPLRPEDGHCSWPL

The first experiment has as its target T1, PD-1/PD-L1 interaction (PE-labeled human PD-L1-Ig binding to Jurkat cell line over-expressing human PD-1) (Homo sapiens, UniProt Q15116).
T1 construct: expressed in transfected cells; host or cells: Jurkat
Briefly: Jurkat-PD-1 Cell Binding High-Content Screening Assay (CBA). The following applies: Jurkat-hPD-1 cells, PE-labeled PD-L1-Ig 20 nM final; read-out: Jurkat HPD1 PDL1 IC50. The method, boiled down:
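Compound is added first to the PD-1-expressing Jurkat cells and held 2 h at 37 °C in serum-containing DMEM. The fluorescent PD-L1 fusion follows at 20 nM final for 1 h. Fixed, Hoechst-stained cells are then imaged for bound label.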
Take `CC(C)C[C@@H]1NC(=O)[C@H](Cc2c[nH]c3ccccc23)NC(=O)[C@H](CC(=O)O)NC(=O)[C@H](Cc2ccc(C(=O)O)cc2)NC(=O)[C@H](Cc2ccc(OCC(=O)O)cc2)NC(=O)CSC[C@@H](C(=O)N[C@@H](CCN)C(=O)NCCOCCOCC(=O)NCCCCCCCCCCC(=O)O)NC(=O)[C@H](CCC(N)=O)NC(=O)[C@H](C(C)(C)O)NC(=O)[C@H](CC2CCCCC2)NC(=O)[C@H](CCN)NC(=O)[C@@H](CC(C)C)NC(=O)[C@H](C)N(C)C(=O)[C@H](C(C)C)NC(=O)[C@H](Cc2ccc(-c3ccccc3)cc2)NC1=O` [Example 1125] ({CH2CO}-Y(Carboxymethyl)[Phe(4-COOH)]DWL[Bip]V[NMeA][dL][Dab][Cha][Val(3-OH)]QC[Dab][AEEA][Aun]-OH; thioether N-14): the IC50 was determined as 9.9 nM.

Turning to `Cc1cccc(C[C@@H]2NC(=O)[C@H](CC(=O)O)NC(=O)[C@H](Cc3ccc(C(=O)O)cc3)NC(=O)[C@H](Cc3ccc(OCC(=O)O)cc3)NC(=O)CSC[C@@H](C(=O)NCCOCCOCC(=O)NCCCCCCCCCCCC(=O)O)NC(=O)[C@H](CCCCN)NC(=O)[C@H](C(C)C)NC(=O)[C@H](CC3CCCCC3)NC(=O)[C@H](Cc3cnc[nH]3)NC(=O)[C@@H](CC(C)C)NC(=O)[C@H](C)N(C)C(=O)[C@H](CCCNC(N)=O)NC(=O)[C@H](Cc3ccc(-c4ccccc4)cc3)NC(=O)[C@H](C(C)C)NC2=O)c1` [Example 2367] ({CH2CO}-Y(Carboxymethyl)[Phe(4-COOH)]D[Phe(3-Me)]V[Bip][Cit][NMeA][dL]H[Cha]VKC[AEEA][12Ado]-OH; thioether N-14), the IC50 was 67.1 nM.

Regarding `CC(C)C[C@@H]1NC(=O)[C@H](Cc2c[nH]c3ccccc23)NC(=O)[C@H](CC(=O)O)NC(=O)[C@H](Cc2ccc(C(=O)O)cc2)NC(=O)[C@H](Cc2ccc(OCC(=O)O)cc2)NC(=O)CSC[C@@H](C(=O)N[C@@H](CCCN)C(=O)NCCOCCOCC(=O)NCCCCCCCCCCC(=O)O)NC(=O)[C@H](CCCCN)NC(=O)[C@H](C(C)C)NC(=O)[C@H](CC2CCCCC2)NC(=O)[C@H](CC(N)=O)NC(=O)[C@@H](CC(C)C)NC(=O)[C@H](C)N(C)C(=O)[C@H](C(C)C)NC(=O)[C@H](Cc2ccc(-c3ccccc3)cc2)NC1=O` [Example 2145] ({CH2CO}-Y(Carboxymethyl)[Phe(4-COOH)]DWL[Bip]V[NMeA][dL]N[Cha]VKC[Orn][AEEA][Aun]-OH; thioether N-14), the IC50 is 14.3 nM.

On to `Cc1cccc(C[C@@H]2NC(=O)[C@H](CC(=O)O)NC(=O)[C@H](Cc3ccc(OCC(=O)O)cc3)NC(=O)[C@H](Cc3ccc(OCC(=O)O)cc3)NC(=O)CSC[C@@H](C(=O)NCCCCCCCCCCC(=O)O)NC(=O)[C@H](CCC(=O)O)NC(=O)[C@H](C(C)C)NC(=O)[C@H](CC3CCCCC3)NC(=O)[C@H](CCN)NC(=O)[C@@H](CC(C)C)NC(=O)[C@H](CCC(=O)O)N(C)C(=O)[C@H](Cc3ccc(O)cc3)NC(=O)[C@H](Cc3ccc(-c4ccccc4)cc3)NC(=O)[C@H](Cc3ccc(O)cc3)NC2=O)c1` [Example 2256] ({CH2CO}-Y(Carboxymethyl)Y(Carboxymethyl)D[Phe(3-Me)]Y[Bip]Y[NMeE][dL][Dab][Cha]VEC[Aun]-OH; thioether N-14), for which the half-maximal inhibitory concentration (IC50) was 98.8 nM.

In the case of `Cc1cccc(C[C@@H]2NC(=O)[C@H](CC(=O)O)NC(=O)[C@H](Cc3ccc(OCC(=O)O)cc3)NC(=O)[C@H](CCN)NC(=O)CSC[C@@H](C(=O)N[C@@H](CCN)C(=O)NCCCCCCCCCCC(=O)O)NC(=O)[C@H](CO)NC(=O)[C@H](C(C)(C)O)NC(=O)[C@H](CC3CCCCC3)NC(=O)[C@H](CCN)NC(=O)[C@@H](CC(C)C)NC(=O)[C@H](C)N(C)C(=O)[C@H](Cc3ccc(OCC(=O)O)cc3)NC(=O)[C@H](Cc3ccc(-c4ccccc4)cc3)NC(=O)[C@H](Cc3cccnc3)NC2=O)c1` [Example 1305] ({CH2CO}-[Dab]Y(Carboxymethyl)D[Phe(3-Me)][3Pal][Bip]Y(Carboxymethyl)[NMeA][dL][Dab][Cha][Val(3-OH)]SC[Dab][Aun]-OH; thioether N-14), the IC50 was 24.8 nM.

Consider `Cc1cccc(C[C@@H]2NC(=O)[C@H](CC(=O)O)NC(=O)[C@H](Cc3ccc(OCC(=O)O)cc3)NC(=O)[C@H](CN)NC(=O)CSC[C@@H](C(=O)N[C@@H](CCN)C(=O)NCCCCCCCCCCC(=O)O)NC(=O)[C@H]([C@@H](C)O)NC(=O)[C@H](C(C)C)NC(=O)[C@H](CC3CCCCC3)NC(=O)[C@H](CCN)NC(=O)[C@@H](CC(C)C)NC(=O)[C@H](C)N(C)C(=O)[C@H](Cc3ccc(O)cc3)NC(=O)[C@H](Cc3ccc(-c4ccccc4)cc3)NC(=O)[C@H](C(C)C)NC2=O)c1` [Example 1320] ({CH2CO}-[Dap]Y(Carboxymethyl)D[Phe(3-Me)]V[Bip]Y[NMeA][dL][Dab][Cha]VTC[Dab][Aun]-OH; thioether N-14), for which the 50% inhibitory concentration (IC50) turned out to be 15 nM.

Regarding `Cc1cccc(C[C@@H]2NC(=O)[C@H](CC(=O)O)NC(=O)[C@H](Cc3ccc(OCC(=O)O)cc3)NC(=O)[C@H](CN)NC(=O)CSC[C@@H](C(=O)N[C@@H](CCN)C(=O)NCCCCCCCCCCC(=O)O)NC(=O)[C@H]([C@@H](C)O)NC(=O)[C@H](C(C)C)NC(=O)[C@H](CC3CCCCC3)NC(=O)[C@H](CCN)NC(=O)[C@@H](CC(C)C)NC(=O)[C@H](C)N(C)C(=O)[C@H](Cc3ccc(OCC(=O)O)cc3)NC(=O)[C@H](Cc3ccc(-c4ccccc4)cc3)NC(=O)[C@H](C(C)C)NC2=O)c1` [Example 1260] ({CH2CO}-[Dap]Y(Carboxymethyl)D[Phe(3-Me)]V[Bip]Y(Carboxymethyl)[NMeA][dL][Dab][Cha]VTC[Dab][Aun]-OH; thioether N-14), the IC50 was found to be 10.4 nM.

As for `CCCCCCOC(=O)NCC[C@@H]1NC(=O)[C@@H](CC(C)C)NC(=O)[C@H](C)N(C)C(=O)[C@H](Cc2ccc(OCC(=O)O)cc2)NC(=O)[C@H](Cc2ccc(-c3ccccc3)cc2)NC(=O)[C@H](Cc2ccc(OCC(=O)O)cc2)NC(=O)[C@H](Cc2cccc(C)c2)NC(=O)[C@H](CC(=O)O)NC(=O)[C@H](Cc2ccc(OCC(=O)O)cc2)NC(=O)[C@H]([C@@H](C)O)NC(=O)CSC[C@@H](C(=O)N[C@@H](CCN)C(=O)NCCOCCOCC(=O)NCCCCCCCCCCC(=O)O)NC(=O)[C@H](CCC(=O)O)NC(=O)[C@H](C(C)C)NC(=O)[C@H](CC2CCCCC2)NC1=O` [Example 1311] ({CH2CO}-TY(Carboxymethyl)D[Phe(3-Me)]Y(Carboxymethyl)[Bip]Y(Carboxymethyl)[NMeA][dL][Dab](Hexyloxycarbonyl)[Cha]VEC[Dab][AEEA][Aun]-OH; thioether N-14), the IC50 is 244 nM.

Take `CCC(C)[C@@H]1NC(=O)[C@H](Cc2ccc(-c3ccccc3)cc2)NC(=O)[C@H](C(C)C)NC(=O)[C@H](Cc2c[nH]c3ccccc23)NC(=O)[C@H](CC(=O)O)NC(=O)[C@H](Cc2ccc(OCC(=O)O)cc2)NC(=O)[C@H](Cc2ccncc2)NC(=O)CSC[C@@H](C(=O)N[C@H](CC(N)=O)C(=O)NCCOCCOCC(=O)NCCCCCCCCCCC(=O)O)NC(=O)[C@H](CO)NC(=O)[C@H](C(C)C)NC(=O)[C@H](CC2CCCCC2)NC(=O)[C@H](CCN)NC(=O)[C@@H](CC(C)C)NC(=O)[C@H](C)N(C)C1=O` (stereo partly drawn) [Example 2028] ({CH2CO}-[4Pal]Y(Carboxymethyl)DWV[Bip][Ile(3ξ)][NMeA][dL][Dab][Cha]VSC[dN][AEEA][Aun]-OH; thioether N-14): the IC50 was 9.9 nM.

With `CC(C)C[C@@H]1NC(=O)[C@H](Cc2c[nH]c3ccccc23)NC(=O)[C@H](CC(=O)O)NC(=O)[C@H](Cc2ccc(OCC(=O)O)cc2)NC(=O)[C@H](Cc2ccccc2)NC(=O)CSC[C@@H](C(=O)N[C@@H](CCCN)C(=O)NCCCCCCCCCCC(=O)O)NC(=O)[C@H](CCC(=O)O)NC(=O)[C@H](C(C)C)NC(=O)[C@H](CC(C)C)NC(=O)[C@H](CC(N)=O)NC(=O)[C@@H](CC(C)C)NC(=O)[C@H](C)N(C)C(=O)[C@H](C(C)C)NC(=O)[C@H](Cc2ccc(-c3ccccc3)cc2)NC1=O` [Example 1336] ({CH2CO}-FY(Carboxymethyl)DWL[Bip]V[NMeA][dL]NLVEC[Orn][Aun]-OH; thioether N-14), the IC50 was 198 nM.

Staying with this experiment, now noted: PE-labeled PD-L1-Ig 20 nM final, Jurkat-hPD-1 cells; read-out: Jurkat HPD1 PDL1 IC50.
`Cc1cccc(C[C@@H]2NC(=O)[C@H](CC(=O)O)NC(=O)[C@H](Cc3ccc(OCC(=O)O)cc3)NC(=O)[C@H](C)NC(=O)CSC[C@@H](C(=O)N[C@@H](CCN)C(=O)NCCCCCCCCCCCCC(=O)O)NC(=O)[C@H](Cc3cnc[nH]3)NC(=O)[C@H](C(C)(C)O)NC(=O)[C@H](CC3CCCCC3)NC(=O)[C@H](CCN)NC(=O)[C@@H](CC(C)C)NC(=O)[C@H](C)N(C)C(=O)[C@H](CCCNC(=N)N)NC(=O)[C@H](Cc3ccc(-c4ccccc4)cc3)NC(=O)[C@H](Cc3ccc(O)cc3)NC2=O)c1` [Example 2642] ({CH2CO}-AY(Carboxymethyl)D[Phe(3-Me)]Y[Bip]R[NMeA][dL][Dab][Cha][Val(3-OH)]HC[Dab]-{NH(CH2)12COOH}; thioether N-14): the IC50 was 74.4 nM.

For the compound `CC(=O)NCCCC[C@@H]1NC(=O)[C@H](C(C)(C)O)NC(=O)[C@H](CC2CCCCC2)NC(=O)[C@H](CCN)NC(=O)[C@@H](CC(C)C)NC(=O)[C@H](C)N(C)C(=O)[C@H](CCC(N)=O)NC(=O)[C@H](Cc2ccc(-c3ccccc3)cc2)NC(=O)[C@H](Cc2ccc(C(=O)O)cc2)NC(=O)[C@H](Cc2cccc(C(F)(F)F)c2)NC(=O)[C@H](CC(=O)O)NC(=O)[C@H](Cc2ccc(OCC(=O)O)cc2)NC(=O)[C@H](Cc2ccc(OCC(=O)O)cc2)NC(=O)CSC[C@@H](C(=O)N[C@H](CCN)C(=O)NCCOCCOCC(=O)N[C@@H](CO)C(=O)NCCOCCOCC(=O)N[C@@H](CCC(=O)NCCCCCCCCCCCCCCC(=O)O)C(=O)O)NC1=O` [Example 2650] ({CH2CO}-Y(Carboxymethyl)Y(Carboxymethyl)D[Phe(3-CF3)][Phe(4-COOH)][Bip]Q[NMeA][dL][Dab][Cha][Val(3-OH)]K(Ac)C[dDab][AEEA]S[AEEA]E(NH(CH2)14COOH)-OH; thioether N-14), the IC50 worked out at 161 nM.
